Assay results as given in paper PMC11547576, “Identification of a New Promising BAG3 Modulator Featuring the Imidazopyridine Scaffold” (Molecules, 2024).

Columns and labels:
BAG3 full-length = target: T1, BAG3 full-length (Homo sapiens, UniProt O95817); assay: SPR assay on BAG3 full-length protein; conditions: Biacore T200, 0 to 100 µM, 25 °C, 1:1 interaction model, n.b. = no binding; for Kd: read-out: BAG3 FULL KD (µM) ± SD
T1 construct: both the full-length BAG3 protein and its BAG domain; purchased Novus Biologicals (Littleton, CO, USA)
T1 sequence (O95817 whole entry, the tested form may be a part): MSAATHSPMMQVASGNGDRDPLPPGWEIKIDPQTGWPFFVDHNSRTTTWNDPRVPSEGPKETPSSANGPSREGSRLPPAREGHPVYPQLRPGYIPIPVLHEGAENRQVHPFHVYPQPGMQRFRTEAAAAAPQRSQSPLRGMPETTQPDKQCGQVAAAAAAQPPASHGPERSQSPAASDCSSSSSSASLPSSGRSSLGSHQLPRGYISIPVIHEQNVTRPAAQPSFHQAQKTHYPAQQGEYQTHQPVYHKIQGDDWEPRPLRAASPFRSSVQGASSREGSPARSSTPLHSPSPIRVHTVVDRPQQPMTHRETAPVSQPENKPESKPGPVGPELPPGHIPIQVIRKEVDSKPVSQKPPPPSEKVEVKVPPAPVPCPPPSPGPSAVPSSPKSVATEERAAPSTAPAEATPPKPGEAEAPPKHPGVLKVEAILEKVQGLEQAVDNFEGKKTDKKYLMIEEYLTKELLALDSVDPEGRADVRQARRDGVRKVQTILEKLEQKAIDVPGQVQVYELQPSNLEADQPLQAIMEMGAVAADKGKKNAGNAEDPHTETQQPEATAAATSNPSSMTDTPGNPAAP
Description: (§1) In this study, we employed SPR experiments to evaluate the interactions between synthesized compounds (1–14) and both the full-length BAG3 protein and its BAG domain. Only the compounds that successfully bound to the full-length BAG3 protein were tested for their interaction with the BAG domain. Protein immobilization was achieved using the amide coupling method, and the compounds were tested at ten different concentrations, ranging from 0 to 100 µM. A known binder of BAG3-BD, LK4 ((Z)-ethyl 2-(5-(3,4-dihydroxybenzylidene)-2,4-dioxothiazolidin-3yl)acetate), was used as a positive control. […] Compound 14 also bound the target but with slightly higher KD values, still within the micromolar range. The three identified compounds were further investigated to understand whether this binding induced an effect on BAG3 protein functions. The KD values reported in Table 1 for the known inhibitor LK4 differ from those in previous studies due to the use of a newer-generation instrument for the SPR experiments. The earlier experiments utilized the Biacore 3000, whereas the current study employed the Biacore T200. While ligand binding was confirmed in both sets of experiments, the slightly different KD values are attributed to the enhanced sensitivity of the Biacore T200.
(§2) Recombinant human BAG3 protein (Bcl2-associated athanogene 3) was sourced from Novus Biologicals (Littleton, CO, USA), while the BAG3 domain (BAG3-BD) was procured from ARETA International S.r.l. (Gerenzano, Italy). We utilized (Z)-ethyl 2-(5-(3,4-dihydroxybenzylidene)-2,4-dioxothiazolidin-3-yl)acetate (LK4), a known BAG3 inhibitor previously identified by our group. Surface Plasmon Resonance (SPR) spectroscopy was employed to assess the affinity of synthesized molecules for BAG3 and BAG-BD using a Biacore T200 optical biosensor equipped with CM5 sensor chips (Cytiva, Marlborough, MA, USA). BAG3 and BAG-BD were immobilized on the CM5 sensor chip using standard amine-coupling protocols. BAG3 protein (0.067 μg/μL in 10 mM CH3COONa, pH 4.5) was immobilized at a flow rate of 10 μL/min, resulting in a density of 14 kRU. The BAG3 domain (0.38 μg/μL in 10 mM CH3COONa, pH 4.5) was immobilized under similar conditions, achieving a density of 4 kRU. For the experiments, BAG3 and BAG-BD surfaces, along with an unmodified reference surface, were prepared for simultaneous analyses.
Compounds 1–14 and LK4 were dissolved to 10 mM in 100% DMSO and then diluted 1:20 (v/v) in PBS-P buffer (0.2 M phosphate buffer, 27 mM KCl, 1.37 M NaCl, 0.5% surfactant P20) to achieve a final DMSO concentration of 5.0%. These compounds were injected in a concentration series (1:2 dilution, 10 different concentrations) ranging from 0 to 100 μM, prepared in 96-well plates. SPR experiments were conducted at 25 °C with a flow rate of 20 μL/min, featuring 90 s of association and 400 s of dissociation monitoring. Changes in mass, reflected as resonance units (RU), were recorded to determine binding responses. KD values were calculated using Biaevaluation software 3.2 by globally fitting the double-referenced association and dissociation data to a 1:1 interaction model. See Supplementary Materials for all the sensorgrams (Figures S43–S50).

HeLa cells = assay: MTT cell viability assay on HeLa cells; format: cell-based; conditions: 72 h
Description: Elevated expression levels of BAG3 are strongly associated with signaling pathways in various types of malignant cells; consequently, reducing the activity of this co-chaperone inhibits cell proliferation, triggers apoptosis, and induces cell cycle arrest. To assess the activity of compounds 10, 12, and 14, cytotoxicity assays were performed on HeLa cells, which were chosen for their tendency to overexpress BAG3 proteins. MTT assays were conducted by exposing HeLa cells to different concentrations of the compounds (25, 50, and 100 µM) for 72 h. Additionally, 10% DMSO was used as a positive control, while 0.1% DMSO served as a negative control. […] The next step involved the assessment of the cytotoxicity of the most promising candidate, 10, on healthy cells to determine its safety profile. To achieve this, MTT assays were conducted on HaCat cells over 72 h.
Human cervical carcinoma cell lines (HeLa, kindly donated by Prof. Ornella Moltedo, Department of Pharmacy, University of Salerno) and immortalized human keratinocytes (HaCaT) were cultured in a DMEM/high glucose medium. This medium was supplemented with 10% FBS (v/v), 2 mM/L glutamine, 100 U/mL penicillin, and […] streptomycin. The cells were maintained at 37 °C in a humidified atmosphere with 5% CO2. To ensure logarithmic growth, the cells were sub-cultured every 2 days.
Cell viability was assessed by measuring mitochondrial metabolic activity using a colorimetric assay, which involves the reduction of 3-[4,5-dimethylthiazol-2,5-diphenyl-2H-tetrazolium bromide (MTT) to purple formazan. Stock solutions of compounds 10, 12, and 14 (50 mM in DMSO) were stored at −20 °C in the dark and diluted just before being added to the sterile culture medium. Briefly, HeLa cells (3.5 × 10^3 cells/well) were seeded in triplicate in 96-well plates, and after 24 h, to allow for attachment, the cells were treated with various concentrations of the tested compounds (25, 50 and 100 μM), 0.1% (v/v) DMSO as a negative control, and 10% (v/v) DMSO as a positive control for 72 h. Following treatment, 20 μL of MTT (5 mg/mL in PBS) was added to each well, and the cells were incubated for an additional 3 h at 37 °C. The formazan crystals formed were then dissolved in 100 μL of a buffer containing 50% (v/v) N, N-dimethylformamide and 20% SDS (pH 4.5). Absorbance was measured at 570 nm using a Multiskan™ GO Microplate Spectrophotometer (Thermo Fisher Scientific, Waltham, MA, USA,). […] The IC50 values, representing the concentration causing 50% inhibition of cell survival, were calculated and compared to control cells treated with DMSO using GraphPad Prism 8.0 software through nonlinear regression of dose–response inhibition. Only for compound 10 was the IC50 also assessed on HaCaT cells (5.0 × 10^3 cells/well) after 72 h of treatment.

BAG3-BD = target: T2, BAG3-BD (Homo sapiens, UniProt O95817); assay: SPR assay on BAG domain of BAG3 (BAG3-BD); format: binding; conditions: Biacore T200, 0 to 100 µM, 25 °C, 1:1 interaction model, read-out: BAG DOMAIN KD (µM) ± SD
T2 construct: the BAG3 domain (BAG3-BD) was procured from ARETA International S.r.l; purchased ARETA International S.r.l; (Gerenzano, Italy)
T2 sequence (O95817 421-498 limits assumed): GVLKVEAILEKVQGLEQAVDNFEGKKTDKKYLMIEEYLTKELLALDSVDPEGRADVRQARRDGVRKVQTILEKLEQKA
Description: as §1
as §2, with “For the experiments, BAG3 and BAG-BD surfaces, along with an unmodified reference surface, were prepared for simultaneous analyses.” left out
Compounds 1–14 and LK4 were dissolved to 10 mM in 100% DMSO and then diluted 1:20 (v/v) in PBS-P buffer (0.2 M phosphate buffer, 27 mM KCl, 1.37 M NaCl, 0.5% surfactant P20) to achieve a final DMSO concentration of 5.0%. […] Changes in mass, reflected as resonance units (RU), were recorded to determine binding responses. KD values were calculated using Biaevaluation software 3.2 by globally fitting the double-referenced association and dissociation data to a 1:1 interaction model. […]

Structure (SMILES) | BAG3 FULL KD (µM) ± SD (BAG3 full-length) | also measured
CCCCNc1c(CC)nc2ccccn12 [Compound 4, N-butyl-2-ethylimidazo[1,2-a]pyridin-3-amine] | n.b. | 
Brc1ccc2nc(-c3ccccc3)c(NC3CCCCC3)n2c1 [Compound 5, 6-bromo-N-cyclohexyl-2-phenylimidazo[1,2-a]pyridin-3-amine] | n.b. | 
COc1ccc(F)c(-c2nc3cc(C)ccn3c2NCc2ccccc2)c1 [Compound 14, N-benzyl-2-(2-fluoro-5-methoxyphenyl)-7-methylimidazo[1,2-a]pyridin-3-amine] |  | mortality (HeLa cells; 25 µM): lost its effect; mortality at 100 µM (HeLa cells; Homo sapiens): 50%; Kd (BAG3 full-length): 76.2 ± 5.44 µM; Kd (BAG3-BD): 16.9 ± 5.87 µM
CCOC(=O)CN1C(=O)S/C(=C\c2ccc(O)c(O)c2)C1=O [LK4, (Z)-ethyl 2-(5-(3,4-dihydroxybenzylidene)-2,4-dioxothiazolidin-3yl)acetate, reference compound] |  | Kd (BAG3 full-length): 19.9 ± 6.58 µM; Kd (BAG3-BD): 0.18 ± 0.02 µM
COc1ccc(Nc2c(-c3cc(OC)ccc3F)nc3cc(C)ccn23)cc1 [Compound 13, 2-(2-fluoro-5-methoxyphenyl)-N-(4-methoxyphenyl)-7-methylimidazo[1,2-a]pyridin-3-amine] | n.b. | 
CCc1nc2ccccn2c1NC1CCCCC1 [Compound 2, N-cyclohexyl-2-ethylimidazo[1,2-a]pyridin-3-amine] | n.b. | 
Clc1ccc2nc(-c3ccccc3Br)c(Nc3ccc4ccccc4c3)n2c1 [Compound 12, 2-(2-bromophenyl)-6-chloro-N-(naphthalen-2-yl)imidazo[1,2-a]pyridin-3-amine] |  | mortality at 25 µM (HeLa cells; Homo sapiens, 25 µM): 40%; mortality at 100 µM (HeLa cells; Homo sapiens): 60%; IC50 (HeLa cells; Homo sapiens, seven concentrations (1 to 100 µM)): 38.9 ± 3.49 µM; Kd (BAG3 full-length): 20.7 ± 0.42 µM; Kd (BAG3-BD): 14.7 ± 2.69 µM
CCc1ccc(-c2nc3cc(Br)ccn3c2Nc2ccc3ccccc3c2)cc1 [Compound 9, 7-bromo-2-(4-ethylphenyl)-N-(naphthalen-2-yl)imidazo[1,2-a]pyridin-3-amine] | n.b. | 
CCc1nc2ccc(Br)cn2c1NC1CCCCC1 [Compound 6, 6-bromo-N-cyclohexyl-2-ethylimidazo[1,2-a]pyridin-3-amine] | n.b. | 

Second part, led by results:

BAG3 FULL KD (µM) ± SD (BAG3 full-length) | Structure (SMILES) | also measured
n.b. | CCc1ccc(-c2nc3ccc(Cl)cn3c2NC(C)C)cc1 [Compound 11, 6-chloro-2-(4-ethylphenyl)-N-isopropylimidazo[1,2-a]pyridin-3-amine] | 
n.b. | CCCCNc1c(-c2ccccc2)nc2ccccn12 [Compound 3, N-butyl-2-phenylimidazo[1,2-a]pyridin-3-amine] | 
n.b. | Brc1ccn2c(Nc3ccc4ccccc4c3)c(-c3ccccc3Br)nc2c1 [Compound 8, 7-bromo-2-(2-bromophenyl)-N-(naphthalen-2-yl)imidazo[1,2-a]pyridin-3-amine] | 
n.b. ^a | c1ccc(-c2nc3ccccn3c2NC2CCCCC2)cc1 [Compound 1, N-cyclohexyl-2-phenylimidazo[1,2-a]pyridin-3-amine] | 
n.b. | CCc1ccc(-c2nc3cc(Br)ccn3c2NC(C)C)cc1 [Compound 7, 7-bromo-2-(4-ethylphenyl)-N-isopropylimidazo[1,2-a]pyridin-3-amine] | 
